In PubChem BioAssay AID248 (DTP/NCI, 2004):
Values joined by “and” are separate entries in the source; they are usually repeats but may differ in a detail not shown here. Identical values can stand only once. Toxic doses and inconclusive results are not listed. Rule as the data show it: active = T/C of 150% or more; inactive = T/C below 125%. Peptide text beside a SMILES is read from it.

Test system: L1210 leukemia ip in BDF1 mice, survival T/C
Assay: NCI In Vivo Anticancer Drug Screen. Data for tumor model L1210 Leukemia (intraperitoneal) in B6D2F1 (BDF1) mice
Conditions: endpoint: mean survival time, higher = longer survival
Summary of the method: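 Ratio derived from survival: compound-dosed mice over vehicle-dosed mice, all bearing a transplantable tumor.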

[1] = dose: 100.0 mg/kg/injection, schedule: Q01DX009 (ip), vehicle: Klucel (hydroxypropylcellulose) (HPC)
[2] = dose: 100.0 mg/kg/injection, schedule: Q04DX003 (ip), vehicle: Klucel (hydroxypropylcellulose) (HPC)
[3] = dose: 200.0 mg/kg/injection, schedule: Q01DX009 (ip), vehicle: Klucel (hydroxypropylcellulose) (HPC)
[4] = dose: 200.0 mg/kg/injection, schedule: Q04DX003 (ip), vehicle: Klucel (hydroxypropylcellulose) (HPC)
[5] = dose: 400.0 mg/kg/injection, schedule: Q04DX003 (ip), vehicle: Klucel (hydroxypropylcellulose) (HPC)
[6] = dose: 100.0 mg/kg/injection, schedule: Q04DX003 (ip), vehicle: saline
[7] = dose: 200.0 mg/kg/injection, schedule: Q04DX003 (ip), vehicle: saline
[8] = dose: 400.0 mg/kg/injection, schedule: Q04DX003 (ip), vehicle: saline
[9] = dose: 100.0 mg/kg/injection, schedule: Q01DX009 (ip), vehicle: saline with Tween-80
[10] = dose: 100.0 mg/kg/injection, schedule: Q01DX001 (ip), vehicle: saline with Tween-80
[11] = dose: 200.0 mg/kg/injection, schedule: Q01DX001 (ip), vehicle: saline
[12] = dose: 400.0 mg/kg/injection, schedule: Q01DX001 (ip), vehicle: saline
[13] = dose: 400.0 mg/kg/injection, schedule: Q01DX009 (ip), vehicle: Klucel (hydroxypropylcellulose) (HPC)
[14] = dose: 100.0 mg/kg/injection, schedule: Q04DX002 (ip), vehicle: saline with Tween-80
[15] = dose: 200.0 mg/kg/injection, schedule: Q04DX002 (ip), vehicle: saline with Tween-80

Measured: T/C

CC(C)NC(=O)c1cc(NC(=O)c2ccc(C(=O)Nc3cc(C(=O)NC(C)C)cc(C4=NCCN4)c3)cc2)cc(C2=NCCN2)c1
inactive: dose: 2.5 mg/kg/injection, schedule: Q01DX015 (ip), vehicle: water 89 % of control | dose: 5.0 mg/kg/injection, schedule: Q01DX015 (ip), vehicle: water 97 % of control | dose: 10.0 mg/kg/injection, schedule: Q01DX015 (ip), vehicle: water 92 % of control | dose: 18.75 mg/kg/injection, schedule: Q01DX015 (ip), vehicle: water 101 % of control | dose: 20.0 mg/kg/injection, schedule: Q01DX015 (ip), vehicle: water 95 % of control | dose: 37.5 mg/kg/injection, schedule: Q01DX015 (ip), vehicle: water 96 % of control

O=C(O)Cn1cc(Cl)cc(Cl)c1=O
inactive: dose: 100.0 mg/kg/injection, schedule: Q04DX002 (ip), vehicle: Klucel (hydroxypropylcellulose) (HPC) 107 % of control | dose: 200.0 mg/kg/injection, schedule: Q04DX002 (ip), vehicle: Klucel (hydroxypropylcellulose) (HPC) 107 % of control | dose: 400.0 mg/kg/injection, schedule: Q04DX002 (ip), vehicle: Klucel (hydroxypropylcellulose) (HPC) 96 % of control

CCN(CC)C(=O)C1(C)CCCC2(C)c3cc(OC(C)=O)ccc3CCC12 (configuration not stated)
inactive: [1] 92 % of control | [2] 108 % of control | [3] 87 % of control | [4] 100 % of control | [5] 100 % of control

CC(C(N)=O)N1C(=O)C2C3CCC(O3)C2C1=O (configuration not stated)
inactive: [6] 97 % of control | [7] 97 % of control | [8] 97 % of control

C[C@@H]1CC2=CC(=O)CC[C@]2(C)[C@H]2CC[C@]3(C)[C@@H](O)CC[C@H]3[C@H]12
inactive: [9] 92 % of control | dose: 200.0 mg/kg/injection, schedule: Q01DX009 (ip), vehicle: saline with Tween-80 112 % of control | dose: 400.0 mg/kg/injection, schedule: Q01DX009 (ip), vehicle: saline with Tween-80 100 % of control

COC(=O)C(CCCN=C(N)N)NC(=O)OCc1ccccc1 (configuration not stated)
inactive: [6] 105 % of control | [7] 110 % of control | [8] 108 % of control

Cc1cc(C)c2c(C#N)cn(-c3ccc([N+](=O)[O-])cc3)c2n1
inactive: [10] 98 % of control | dose: 200.0 mg/kg/injection, schedule: Q01DX001 (ip), vehicle: saline with Tween-80 109 % of control | [11] 102 % of control | dose: 400.0 mg/kg/injection, schedule: Q01DX001 (ip), vehicle: saline with Tween-80 95 % of control | [12] 94 % of control

NCCCCC(N)C(=O)NC(CCCN=C(N)N)C(=O)O (stereo not drawn) (H-Lys-Arg-OH; configuration not given here)
inactive: dose: 50.0 mg/kg/injection, schedule: Q04DX003 (ip), vehicle: water 117 % of control | dose: 100.0 mg/kg/injection, schedule: Q01DX009 (ip), vehicle: water 108 % of control | dose: 100.0 mg/kg/injection, schedule: Q04DX003 (ip), vehicle: water 121 % of control | dose: 200.0 mg/kg/injection, schedule: Q01DX009 (ip), vehicle: water 97 % of control | dose: 200.0 mg/kg/injection, schedule: Q04DX003 (ip), vehicle: water 111 % of control | dose: 400.0 mg/kg/injection, schedule: Q04DX003 (ip), vehicle: water 115 % of control

CCCCNC(=O)c1ccccc1N
inactive: dose: 50.0 mg/kg/injection, schedule: Q04DX003 (ip), vehicle: other 103 % of control | dose: 100.0 mg/kg/injection, schedule: Q04DX003 (ip), vehicle: other 95 % of control and 101 % of control | dose: 200.0 mg/kg/injection, schedule: Q04DX003 (ip), vehicle: other 92 % of control | dose: 400.0 mg/kg/injection, schedule: Q04DX003 (ip), vehicle: other 90 % of control

COC(=O)c1ccccc1N=NNc1ccc(-c2nc(N)nc(N)n2)cc1
inactive: [2] 100 % of control | [3] 100 % of control | [4] 94 % of control | [13] 100 % of control | [5] 95 % of control

CC1CCC=C2C(=O)C3OC3C(C(C)(C)O)C21C (configuration not stated)
inactive: dose: 100.0 mg/kg/injection, schedule: Q01DX009 (ip), vehicle: acetone 98 % of control | dose: 100.0 mg/kg/injection, schedule: Q04DX003 (ip), vehicle: saline with Tween-80 90 % of control | dose: 200.0 mg/kg/injection, schedule: Q01DX009 (ip), vehicle: acetone 96 % of control | dose: 400.0 mg/kg/injection, schedule: Q01DX009 (ip), vehicle: acetone 100 % of control | dose: 400.0 mg/kg/injection, schedule: Q04DX003 (ip), vehicle: saline with Tween-80 93 % of control

Cc1ccccc1C[As](C)(=O)O
inactive: dose: 100.0 mg/kg/injection, schedule: Q01DX001 (ip), vehicle: Klucel (hydroxypropylcellulose) (HPC) 98 % of control | dose: 200.0 mg/kg/injection, schedule: Q01DX001 (ip), vehicle: Klucel (hydroxypropylcellulose) (HPC) 118 % of control

C/C(=N\N(Cc1ccc(CN(/N=C(\C)c2ccccc2)c2ccccc2)cc1)c1ccccc1)c1ccccc1
inactive: dose: 100.0 mg/kg/injection, schedule: Q01DX001 (ip), vehicle: other 86 % of control | dose: 200.0 mg/kg/injection, schedule: Q01DX001 (ip), vehicle: other 89 % of control | dose: 400.0 mg/kg/injection, schedule: Q01DX001 (ip), vehicle: other 89 % of control

CCSc1nc(C(OC)OC)c(Cc2ccccc2)c(=O)[nH]1
inactive: [2] 95 % of control | [4] 89 % of control | [5] 100 % of control

CN(C)C(=O)c1ccccc1O
inactive: [1] 100 % of control | [3] 90 % of control | [13] 90 % of control

O=C(CCCN1CCC(O)(c2ccc(C(F)(F)F)cc2)CC1)c1ccc(N2CCC(O)CC2)cc1
inactive: [14] 93 % of control | [15] 100 % of control

C(=NCCCN1CCN(CCCN=Cc2ccc3c(c2)OCO3)CC1)c1ccc2c(c1)OCO2
inactive: dose: 25.0 mg/kg/injection, schedule: Q01DX Z (ip), vehicle: carboxymethylcellulose (CMC) 103 % of control | dose: 50.0 mg/kg/injection, schedule: Q01DX Z (ip), vehicle: carboxymethylcellulose (CMC) 109 % of control | dose: 100.0 mg/kg/injection, schedule: Q01DX Z (ip), vehicle: carboxymethylcellulose (CMC) 100 % of control | dose: 200.0 mg/kg/injection, schedule: Q01DX Z (ip), vehicle: carboxymethylcellulose (CMC) 97 % of control

COc1ccc(C2(C)C(C#N)C(=O)NC(=O)C2C#N)cc1 (configuration not stated)
inactive: dose: 100.0 mg/kg/injection, schedule: Q01DX001 (ip), vehicle: saline 98 % of control | [11] 122 % of control | [12] 104 % of control

O=C1C(O)=C(c2ccccc2C(=O)O)C(=O)C(O)=C1c1ccccc1C(=O)O
inactive: dose: 25.0 mg/kg/injection, schedule: Q01DX009 (ip), vehicle: saline with Tween-80 101 % of control | dose: 50.0 mg/kg/injection, schedule: Q01DX009 (ip), vehicle: saline with Tween-80 101 % of control | dose: 50.0 mg/kg/injection, schedule: Q04DX002 (ip), vehicle: saline with Tween-80 102 % of control | [9] 96 % of control | [14] 98 % of control and 109 % of control | [15] 102 % of control and 113 % of control | dose: 400.0 mg/kg/injection, schedule: Q04DX002 (ip), vehicle: saline with Tween-80 98 % of control and 104 % of control

C1=C/C2OC2CCCC/1 (configuration not stated)
inactive: dose: 50.0 mg/kg/injection, schedule: Q01DX009 (ip), vehicle: saline 96 % of control | dose: 100.0 mg/kg/injection, schedule: Q01DX009 (ip), vehicle: saline 97 % of control | [6] 102 % of control | dose: 200.0 mg/kg/injection, schedule: Q01DX009 (ip), vehicle: saline 102 % of control | [7] 87 % of control | [8] 93 % of control

O=C1OC(C(Cl)(Cl)Cl)OC1C(Cl)(Cl)Cl (configuration not stated)
inactive: dose: 25.0 mg/kg/injection, schedule: Q01DX001 (ip), vehicle: saline with Tween-80 98 % of control | dose: 50.0 mg/kg/injection, schedule: Q01DX001 (ip), vehicle: saline with Tween-80 96 % of control | [10] 93 % of control

Cc1ccc(NC(=O)Oc2ccc(C(C)(C)C)cc2Br)cc1NC(=O)Oc1ccc(C(C)(C)C)cc1Br
inactive: dose: 100.0 mg/kg/injection, schedule: Q01DX009 (ip), vehicle: other 87 % of control | dose: 200.0 mg/kg/injection, schedule: Q01DX009 (ip), vehicle: other 100 % of control | dose: 400.0 mg/kg/injection, schedule: Q01DX009 (ip), vehicle: other 98 % of control
